Consider 14 compounds from patent publication US20220306695A1, “COMPSTATIN ANALOGUES AND THEIR MEDICAL USES” (priority 2019, published 2022).

Structures are written as SMILES. Starred links: 1 amine or outer side, 2 acyl side, 3 side chain; linkers in the order of their positions; H or OH if unused. Positions of bridges follow the written chain, without caps; N, C: chain ends. Non-standard residues stand in square brackets, D forms with d. Residues, ends and D or L forms follow the SMILES beside them. Groups on a side chain read outwards from the residue. *: point of attachment. Trp(1-Me) = Cn1cc(C[C@H](N)C(=O)O)c2ccccc21; Abu(4-yl) = O=C([C@H](CC[*:3])N[*:1])[*:2]; C18 diacid = O=C(O)CCCCCCCCCCCCCCCCC(=O)*; C16 diacid = O=C(O)CCCCCCCCCCCCCCC(=O)*; γGlu = O=C(O)[C@H](CCC(=O)[*:2])N[*:1]; AEEA = NCCOCCOCC(=O)O; Sar = CNCC(=O)O

One assay has as its system classical complement pathway. Kind of assay: In vitro haemolysis assay (inhibition of classical complement pathway). It is filed as cell-based, human. The settings on record: Table 3; cells that print μM; read-out: IC50, in vitro analysis of inhibition of hemolysis. Summed up: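 Serially diluted compound (9 points) was preincubated 15 min at room temperature with diluted human serum, titrated per batch to give 70-90% maximal haemolysis, in Tris/casein buffer pH 7.4 with Mg2+/Ca2+. Antibody-sensitized sheep erythrocytes were then added for 30 min at 37° C, and the reaction was stopped with EDTA. Haemolysis was read at A405, with IC50 from 4PL fit.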
As for `CC[C@H](C)[C@H](N)C(=O)N[C@H]1CSSC[C@@H](C(=O)N[C@H](C(N)=O)[C@@H](C)O)NC(=O)[C@H](CCCN=C(N)N)NC(=O)[C@H](Cc2cnc[nH]2)NC(=O)[C@H](Cc2cnc[nH]2)NC(=O)CNC(=O)[C@H](Cc2c[nH]c3ccccc23)NC(=O)[C@H](CC(=O)O)NC(=O)[C@H](CCC(N)=O)NC(=O)[C@H](C(C)C)NC(=O)[C@H](C(C)C)NC1=O` [Compstatin], the IC50 is greater than 5 µM.

Still in this assay, the particulars now being: Table 3; human serum, sensitized sheep red blood cells; read-out: IC50[nM], in vitro analysis of inhibition of hemolysis.
Consider `CC[C@H](C)[C@@H]1NC(=O)[C@@H](NC(=O)CN(C)C(=O)[C@H](N)Cc2ccc(O)cc2)CSSC[C@@H](C(=O)N[C@H](C(=O)N[C@@H](CCC(=O)O)C(=O)N[C@@H](C)C(N)=O)[C@@H](C)O)NC(=O)[C@H](CCCNC(=N)N)NC(=O)[C@H](Cc2c[nH]cn2)NC(=O)[C@H](CCC(=O)O)NC(=O)CNC(=O)[C@H](Cc2c[nH]c3ccccc23)NC(=O)[C@H](CC(=O)O)NC(=O)[C@H](CCC(N)=O)NC(=O)[C@H](Cc2cn(C)c3ccccc23)NC1=O` [Compound 91] (H-[dY][Sar]CI[Trp(1-Me)]QDWGEHRCTEA-NH2; disulfide 3-13), for which the IC50 was less than 0.1 µM. Still for that read-out and setting: then `CC[C@H](C)[C@@H]1NC(=O)[C@@H](NC(=O)[C@H](Cc2ccccc2)NC(=O)[C@H](CCC(=O)O)NC(=O)[C@H](CO)NC(C)=O)CSSC[C@@H](C(=O)N(C)CC(=O)N[C@@H](CCC(=O)O)C(=O)N[C@@H](C)C(N)=O)NC(=O)[C@H](CCCCN)NC(=O)[C@H](Cc2c[nH]cn2)NC(=O)[C@H](CCC(=O)O)NC(=O)CNC(=O)[C@H](Cc2c[nH]c3ccccc23)NC(=O)[C@H](CC(=O)O)NC(=O)[C@H](CCC(N)=O)NC(=O)[C@H](Cc2cn(C)c3ccccc23)NC1=O` [Compound 86] (Ac-SEFCI[Trp(1-Me)]QDWGEHKC[Sar]EA-NH2; disulfide 4-14), with less than 0.1 µM. Same read-out and setting: then `CC[C@H](C)[C@@H]1NC(=O)[C@@H](NC(=O)[C@H](Cc2ccccc2)NC(=O)[C@H](CCC(=O)O)NC(=O)[C@H](CO)NC(C)=O)CSSC[C@@H](C(=O)N(C)CC(=O)N[C@@H](CCC(=O)O)C(=O)NCC(=O)N[C@@H](CCC(=O)O)C(=O)NCCOCCOCC(=O)NCCOCCOCC(=O)NCCOCCOCC(=O)N[C@@H](CCCCNC(=O)CC[C@H](NC(=O)CNC(=O)CC[C@H](NC(=O)CCCCCCCCCCCCCCCCC(=O)O)C(=O)O)C(=O)O)C(N)=O)NC(=O)[C@H](CCCNC(=N)N)NC(=O)[C@H](Cc2c[nH]cn2)NC(=O)[C@H](CCC(=O)O)NC(=O)CNC(=O)[C@H](Cc2c[nH]c3ccccc23)NC(=O)[C@H](CC(=O)O)NC(=O)[C@H](CCC(N)=O)NC(=O)[C@H](Cc2cn(C)c3ccccc23)NC1=O` [Compound 143] (Ac-SEFCI[Trp(1-Me)]QDWGEHRC[Sar]EGE[AEEA][AEEA][AEEA]K([γGlu-Gly-γGlu-C18 diacid])-NH2; disulfide 4-14), with less than 0.1 µM; and `CC[C@H](C)[C@@H]1NC(=O)[C@@H](NC(=O)[C@H](Cc2ccccc2)NC(=O)[C@H](CCC(=O)O)NC(=O)[C@H](CO)NC(C)=O)CSCC[C@@H](C(=O)N[C@H](C(=O)N[C@@H](CCC(=O)O)C(=O)NCC(=O)N[C@@H](CCC(=O)O)C(=O)NCC(=O)NCC(=O)NCC(=O)N[C@@H](CCCCNC(=O)CC[C@H](NC(=O)CNC(=O)CC[C@H](NC(=O)CCCCCCCCCCCCCCCCC(=O)O)C(=O)O)C(=O)O)C(N)=O)[C@@H](C)O)NC(=O)[C@H](CCCNC(=N)N)NC(=O)[C@H](Cc2c[nH]cn2)NC(=O)[C@H](CCC(=O)O)NC(=O)CNC(=O)[C@H](Cc2c[nH]c3ccccc23)NC(=O)[C@H](CC(=O)O)NC(=O)[C@H](CCC(N)=O)NC(=O)[C@H](Cc2cn(C)c3ccccc23)NC1=O` [Compound 157, Ac-SEFA(1)I[1-Me-Trp]QDWGEHRhC(1)TEGEGGG-K([17-carboxy-heptadecanoyl][γGlu]G[γGlu])-NH2] (Ac-SEFCI[Trp(1-Me)]QDWGEHR[Abu(4-yl)]TEGEGGGK([γGlu-Gly-γGlu-C18 diacid])-NH2; thioether 4-14), with less than 0.1 µM; and `CC[C@H](C)[C@@H]1NC(=O)[C@@H](NC(=O)[C@H](Cc2ccc(O)cc2)NC(=O)[C@H](C)NC(=O)[C@H](CO)NC(=O)CNC(=O)[C@H](CCC(=O)O)NC(C)=O)CSCC[C@@H](C(=O)N(C)CC(=O)N[C@@H](CCC(=O)O)C(=O)N[C@@H](CCCCN)C(=O)N[C@@H](CCC(=O)N[C@@H](CCCCNC(=O)COCCOCCNC(=O)COCCOCCNC(=O)CC[C@H](NC(=O)CCCCCCCCCCCCCCCCC(=O)O)C(=O)O)C(N)=O)C(=O)O)NC(=O)[C@H](CCCNC(=N)N)NC(=O)[C@H](Cc2c[nH]cn2)NC(=O)[C@H](CCC(=O)O)NC(=O)CNC(=O)[C@H](Cc2c[nH]c3ccccc23)NC(=O)[C@H](CC(=O)O)NC(=O)[C@H](CCC(N)=O)NC(=O)[C@H](Cc2cn(C)c3ccccc23)NC1=O` [Compound 159, Ac-EGSAYA(1)I[1-Me-Trp]QDWGEHRhC(1)[Sar]EK[γGlu]-K([17-carboxy-heptadecanoyl][γGlu][Peg3][Peg3])-NH2] (Ac-EGSAYCI[Trp(1-Me)]QDWGEHR[Abu(4-yl)][Sar]EK[γGlu]K([AEEA-AEEA-γGlu-C18 diacid])-NH2; thioether 6-16), with less than 0.1 µM. With `CC[C@H](C)[C@@H]1NC(=O)[C@@H](NC(=O)[C@@H](NC(=O)[C@H](CCCCN)NC(=O)[C@H](CCC(=O)O)NC(=O)[C@H](CCCCN)NC(C)=O)[C@@H](C)CC)CSSC[C@@H](C(=O)N[C@H](C(=O)N[C@@H](CCC(=O)O)C(=O)N[C@@H](CCCCN)C(=O)N[C@@H](CCC(=O)O)C(N)=O)[C@@H](C)O)NC(=O)[C@H](CCCNC(=N)N)NC(=O)[C@H](Cc2c[nH]cn2)NC(=O)[C@H](CCC(=O)O)NC(=O)CNC(=O)[C@H](Cc2c[nH]c3ccccc23)NC(=O)[C@H](CC(=O)O)NC(=O)[C@H](CCC(N)=O)NC(=O)[C@H](Cc2c[nH]c3ccccc23)NC1=O` [Compound 37] (Ac-KEKICIWQDWGEHRCTEKE-NH2; disulfide 5-15), the IC50 was less than 0.25 µM. With `CC[C@H](C)[C@H](NC(C)=O)C(=O)N[C@H]1CSSC[C@@H](C(=O)N[C@H](C(N)=O)[C@@H](C)O)NC(=O)[C@H](CO)NC(=O)[C@H](Cc2c[nH]cn2)NC(=O)[C@H](CCC(=O)O)NC(=O)CNC(=O)[C@H](Cc2c[nH]c3ccccc23)NC(=O)[C@H](CC(=O)O)NC(=O)[C@H](CCC(N)=O)NC(=O)[C@H](Cc2c[nH]c3ccccc23)NC(=O)[C@H]([C@@H](C)CC)NC1=O` [Compound 20] (Ac-ICIWQDWGEHSCT-NH2; disulfide 2-12), the IC50 was less than 0.1 µM. As for `CC[C@H](C)[C@@H]1NC(=O)[C@@H](NC(=O)[C@H](Cc2ccccc2)NC(=O)[C@H](CCC(=O)O)NC(=O)[C@H](CO)NC(C)=O)CCSC[C@@H](C(=O)N(C)CC(=O)N[C@@H](CCC(=O)O)C(=O)NCCOCCOCC(=O)NCCOCCOCC(=O)N[C@@H](CCCCNC(=O)CC[C@H](NC(=O)CNC(=O)CC[C@H](NC(=O)CCCCCCCCCCCCCCCCC(=O)O)C(=O)O)C(=O)O)C(N)=O)NC(=O)[C@H](CCCNC(=N)N)NC(=O)[C@H](Cc2c[nH]cn2)NC(=O)[C@H](CCC(=O)O)NC(=O)CN(C)C(=O)[C@H](Cc2c[nH]c3ccccc23)NC(=O)[C@H](CC(=O)O)NC(=O)[C@H](CCC(N)=O)NC(=O)[C@H](Cc2cn(C)c3ccccc23)NC1=O` [Compound 164, Ac-SEFhC(1)I[1-Me-Trpp]QDW[Sar]EHRA(1)[Sar]E[Peg3][Peg3]-K([17-carboxy-heptadecanoyl][γGlu]G[γGlu])-NH2] (Ac-SEF[Abu(4-yl)]I[Trp(1-Me)]QDW[Sar]EHRC[Sar]E[AEEA][AEEA]K([γGlu-Gly-γGlu-C18 diacid])-NH2; thioether 4-14), the 50% inhibitory concentration (IC50) is less than 0.1 µM. Turning to `CC[C@H](C)[C@H](NC(C)=O)C(=O)N[C@H]1CSSC[C@@H](C(=O)N[C@H](C(=O)N[C@@H](CCC(=O)O)C(=O)NCC(=O)N[C@@H](CCCCN)C(N)=O)[C@@H](C)O)NC(=O)[C@H](CCCNC(=N)N)NC(=O)[C@H](Cc2c[nH]cn2)NC(=O)[C@H](CCC(=O)O)NC(=O)CNC(=O)[C@H](Cc2c[nH]c3ccccc23)NC(=O)[C@H](CC(=O)O)NC(=O)[C@H](CCC(N)=O)NC(=O)[C@H](Cc2c[nH]c3ccccc23)NC(=O)[C@H]([C@@H](C)CC)NC1=O` [Compound 39] (Ac-ICIWQDWGEHRCTEGK-NH2; disulfide 2-12), the half-inhibitory concentration (IC50) was less than 0.1 µM.

For `CC[C@H](C)[C@@H]1NC(=O)[C@@H](NC(=O)[C@H](Cc2ccccc2)NC(=O)[C@H](CCC(=O)O)NC(=O)[C@H](CO)NC(C)=O)CSSC[C@@H](C(=O)N(C)CC(=O)N[C@@H](CCC(=O)O)C(=O)NCC(=O)N[C@@H](CCC(=O)O)C(=O)NCCOCCOCC(=O)NCCOCCOCC(=O)N[C@@H](CCCCNC(=O)CC[C@H](NC(=O)CNC(=O)CC[C@H](NC(=O)CCCCCCCCCCCCCCC(=O)O)C(=O)O)C(=O)O)C(N)=O)NC(=O)[C@H](CCCNC(=N)N)NC(=O)[C@H](Cc2c[nH]cn2)NC(=O)[C@H](CCC(=O)O)NC(=O)CNC(=O)[C@H](Cc2c[nH]c3ccccc23)NC(=O)[C@H](CC(=O)O)NC(=O)[C@H](CCC(N)=O)NC(=O)[C@H](Cc2cn(C)c3ccccc23)NC1=O` [Compound 127] (Ac-SEFCI[Trp(1-Me)]QDWGEHRC[Sar]EGE[AEEA][AEEA]K([γGlu-Gly-γGlu-C16 diacid])-NH2; disulfide 4-14), the IC50 is less than 0.1 µM.

The same assay, now with this note: Table 4; valine 3 versus isoleucine 3 pairs; read-out: CP hemolysis IC50.
For `CC[C@H](C)[C@H](NC(C)=O)C(=O)N[C@H]1CSSC[C@@H](C(=O)N[C@H](C(N)=O)[C@@H](C)O)NC(=O)[C@H](CO)NC(=O)[C@H](Cc2c[nH]cn2)NC(=O)[C@H](CCC(=O)O)NC(=O)CNC(=O)[C@H](Cc2c[nH]c3ccccc23)NC(=O)[C@H](CC(=O)O)NC(=O)[C@H](CCC(N)=O)NC(=O)[C@H](Cc2c[nH]c3ccccc23)NC(=O)[C@H]([C@@H](C)CC)NC1=O` [Compound 20] (Ac-ICIWQDWGEHSCT-NH2; disulfide 2-12), the IC50 came to 0.059 µM. `CC[C@H](C)[C@H](NC(C)=O)C(=O)N[C@H]1CSSC[C@@H](C(=O)N[C@@H](CO)C(N)=O)NC(=O)[C@H](CCCNC(=N)N)NC(=O)[C@H](Cc2c[nH]cn2)NC(=O)[C@H](CCC(=O)O)NC(=O)CNC(=O)[C@H](Cc2c[nH]c3ccccc23)NC(=O)[C@H](CC(=O)O)NC(=O)[C@H](CCC(N)=O)NC(=O)[C@H](Cc2c[nH]c3ccccc23)NC(=O)[C@H](C(C)C)NC1=O` [G, reference compound] (Ac-ICVWQDWGEHRCS-NH2; disulfide 2-12): the IC50 worked out at 0.18 µM.

Still in this assay, the particulars now being: Table 5; different residues at position 3 of Ac-IC(1)XWQDWGEHRC(1)T-NH2; read-out: IC50, CP hemolysis.
In the case of `CC(C)C[C@H](N)C(=O)O` [Leucine, reference compound], the half-maximal inhibitory concentration (IC50) came out at 0.5 µM.

Staying with this assay, now noted: Table 5; different residues at position 3 of Ac-IC(1)[…](1)T-NH2; read-out: IC50, CP hemolysis.
Regarding `CCCC[C@H](N)C(=O)O` [Norleucine, reference compound], the IC50 was found to be 0.48 µM.
